# Where two headings read alike, the source gives them in different places.
# Key:
# Festuca rubra = assay: Growth height of individual grasses (Example 15); format: in vivo; conditions: for Growth height: 3 weeks after treatment; for growth height relative: control 100
# Description: (§1) Under the same conditions as in Example 13 the two grasses Festuca rubra and Poa praetensis (both components of the lawn mixture used in Example 13) were grown in a neutral sandy loam. The growth height was measured 3 weeks after treatment with the active ingredients.
# Poa praetensis = assay: Growth height of individual grasses (Example 15); format: in vivo; set-up: key to plant color: ^+: plants a darker green; conditions: for Growth height: 3 weeks after treatment; for growth height relative: control 100
# Description: as §1
# Alopecurus myosuroides = assay: Herbicidal action (Example 25); format: in vivo; conditions: Alopecurus myosuroides, read-out: percentage damage; for pest or weed control at 1000 g/ha: 1.0 kg/ha; for pest or weed control at 2000 g/ha: 2.0 kg/ha; for pest or weed control at 4000 g/ha: 4.0 kg/ha; for pest or weed control at 8000 g/ha: 8.0 kg/ha
# Description: (§2) Paraffined paper cups having a volume of 170 cm^3 were filled with a sandy loam, and the seeds of the test plants sown therein, separated by species. (The species are also listed below.)
# (§3) In the first group, treatment was effected immediately after sowing and before germination of the seeds (preemergence treatment=soil treatment). Shallow sown seeds not completely covered with soil came into contact with the active ingredients. In the second group, the plants were treated postemergence (=leaf treatment) at a growth height of from 2 to 8 cm, depending on the rate of growth and shape of the species concerned. The compounds were suspended or emulsified in water and applied with the aid of fine nozzles. The soil and plants were thoroughly sprinkler irrigated for the duration of the experiment. The cups were placed in the greenhouse and kept in the temperature range 12°-25° C. or 18°-35° C., depending on the temperature requirements of the various species. After 2 to 6 weeks the action was assessed visually on a 0 to 100 scale, 0 denoting no damage and 100 denoting plants not germinated or completely destroyed.
# Echinochloa crus galli = assay: Herbicidal action (Example 25); format: in vivo
# Description: as §2, §3
# Galium aparine = assay: Herbicidal action (Example 25); format: in vivo; conditions: post-emergence, postemergence, 4.0 kg/ha, read-out: percentage damage
# Description: as §2, §3
# Sinapis alba = assay: Herbicidal action (Example 25); format: in vivo; conditions: read-out: percentage damage; for pest or weed control at 1000 g/ha: 1.0 kg/ha; for pest or weed control at 2000 g/ha: 2.0 kg/ha
# Description: as §2, §3
# sugar beet = assay: Yield and sugar content of sugar beet (Example 20); format: in vivo, sugar beet (KAWpoly variety); conditions: for Sugar content of lower stems rel. / Sugar content rel. / Yield rel.: control 100
# Description: Sugar beets of the KAWpoly variety were grown in a neutral sandy loam in large pots. Fertilization with 1.5 g N as ammonium nitrate and 1 g P2 O5 as secondary potassium phosphate took place at the time of sowing. At a plant height of 16 to 18 cm the leaves were treated twice, once with 0.5 kg/ha and once with 1 kg/ha; in each case, 4 pots formed a variation of the experiment.
# tomatoes = assay: Action on tomatoes (Example 22); format: in vivo; conditions: leaf; for Plant height: 14 days; for Plant height relative: control 100
# Description: Tomatoes were grown in the greenhouse in glass dishes 11.5 cm in diameter containing a peat substrate which was provided with an adequate supply of nutrients. The active ingredients were sprayed onto the leaves in conventional manner at a plant height of 9 to 12 cm.
# Datura stramonium = assay: Herbicidal action (Example 25); format: in vivo; conditions: postemergence
# Description: as §2, §3
# Digitaria sanguinalis = assay: Herbicidal action (Example 25); format: in vivo; conditions: postemergence
# Description: as §2, §3
# Eleusine indica = assay: Herbicidal action (Example 25); format: in vivo; conditions: postemergence
# Description: as §2, §3
compound,measurement,setting,value
Clc1ccc(N2N=NC3C4CC(C5N=NC45)C32)cc1 (stereo not shown) [drawing 385],Growth height,Festuca rubra; 0.5 kg/ha,27.0 cm
same,growth height relative,Festuca rubra; 0.5 kg/ha,98.2
same,Growth height,Festuca rubra; 1.0 kg/ha,25.5 cm
same,growth height relative,Festuca rubra; 1.0 kg/ha,92.7
same,Growth height,Festuca rubra; 2.0 kg/ha,23.5 cm
same,growth height relative,Festuca rubra; 2.0 kg/ha,85.5
same,Growth height,Poa praetensis; 0.5 kg/ha,20.0 cm
same,growth height relative,Poa praetensis; 0.5 kg/ha,88.9
same,plant color,Poa praetensis; 1.0 kg/ha,^+
same,Growth height,Poa praetensis; 1.0 kg/ha,20.0 cm
same,growth height relative,Poa praetensis; 1.0 kg/ha,88.9
same,plant color,Poa praetensis; 2.0 kg/ha,^+
same,Growth height,Poa praetensis; 2.0 kg/ha,15.5 cm
same,growth height relative,Poa praetensis; 2.0 kg/ha,68.9
O=C(Nc1ccc(Cl)c(Cl)c1)C1CC1,pest or weed control at 1000 g/ha,"Alopecurus myosuroides; post-emergence, postemergence",80%
same,pest or weed control at 2000 g/ha,"Alopecurus myosuroides; post-emergence, postemergence",30%
same,pest or weed control at 1000 g/ha,"Alopecurus myosuroides; pre-emergence, preemergence",0%
same,pest or weed control at 2000 g/ha,"Alopecurus myosuroides; pre-emergence, preemergence",0%
same,percentage damage,"Echinochloa crus galli; postemergence, 1.0 kg/ha",100 percentage damage
same,percentage damage,"Echinochloa crus galli; postemergence, 2.0 kg/ha",100 percentage damage
same,percentage damage,"Echinochloa crus galli; preemergence, 1.0 kg/ha",80 percentage damage
same,percentage damage,"Echinochloa crus galli; preemergence, 2.0 kg/ha",90 percentage damage
same,pest or weed control at 4000 g/ha,Galium aparine,0%
same,pest or weed control at 1000 g/ha,"Sinapis alba; post-emergence, postemergence",100%
same,pest or weed control at 2000 g/ha,"Sinapis alba; post-emergence, postemergence",100%
same,pest or weed control at 1000 g/ha,"Sinapis alba; pre-emergence, preemergence",60%
same,pest or weed control at 2000 g/ha,"Sinapis alba; pre-emergence, preemergence",60%
COc1ccc(NC(=O)N(C)C)cc1Cl,pest or weed control at 1000 g/ha,"Alopecurus myosuroides; post-emergence, postemergence",70%
same,pest or weed control at 2000 g/ha,"Alopecurus myosuroides; post-emergence, postemergence",70%
same,pest or weed control at 1000 g/ha,"Alopecurus myosuroides; pre-emergence, preemergence",0%
same,pest or weed control at 2000 g/ha,"Alopecurus myosuroides; pre-emergence, preemergence",0%
same,percentage damage,"Echinochloa crus galli; postemergence, 1.0 kg/ha",100 percentage damage
same,percentage damage,"Echinochloa crus galli; postemergence, 2.0 kg/ha",100 percentage damage
same,percentage damage,"Echinochloa crus galli; preemergence, 1.0 kg/ha",80 percentage damage
same,percentage damage,"Echinochloa crus galli; preemergence, 2.0 kg/ha",90 percentage damage
same,pest or weed control at 4000 g/ha,Galium aparine,50%
same,pest or weed control at 1000 g/ha,"Sinapis alba; post-emergence, postemergence",100%
same,pest or weed control at 2000 g/ha,"Sinapis alba; post-emergence, postemergence",100%
same,pest or weed control at 1000 g/ha,"Sinapis alba; pre-emergence, preemergence",90%
same,pest or weed control at 2000 g/ha,"Sinapis alba; pre-emergence, preemergence",90%
Brc1ccc(N2N=NC3C4CC(C5N=NC45)C32)cc1 (stereo not shown) [drawing 400],Sugar content,sugar beet; 0.5 kg/ha,51.0 % in dry substance
same,Sugar content of lower stems,sugar beet; 0.5 kg/ha,22.9 % in dry substance
same,Yield,sugar beet; 0.5 kg/ha,13.04 g dry substance/vessel
same,Sugar content of lower stems rel.,sugar beet; 0.5 kg/ha,100.9
same,Sugar content rel.,sugar beet; 0.5 kg/ha,101.4
same,Yield rel.,sugar beet; 0.5 kg/ha,107.4
same,Sugar content,sugar beet; 1.0 kg/ha,52.2 % in dry substance
same,Sugar content of lower stems,sugar beet; 1.0 kg/ha,25.8 % in dry substance
same,Yield,sugar beet; 1.0 kg/ha,14.39 g dry substance/vessel
same,Sugar content of lower stems rel.,sugar beet; 1.0 kg/ha,113.6
same,Sugar content rel.,sugar beet; 1.0 kg/ha,103.8
same,Yield rel.,sugar beet; 1.0 kg/ha,118.5
Clc1ccc(N2N=NC3C4CC(C5N=NC45)C32)cc1 (stereo not shown) [drawing 402],Plant height,tomatoes; 1.5 kg/ha,24.3 cm
same,Plant height relative,tomatoes; 1.5 kg/ha,89.3
same,Plant height,tomatoes; 3.0 kg/ha,20.3 cm
same,Plant height relative,tomatoes; 3.0 kg/ha,74.6
same,Plant height,tomatoes; 6.0 kg/ha,14.0 cm
same,Plant height relative,tomatoes; 6.0 kg/ha,51.5
c1csc(N2N=NC3C4CC(C5N=NC45)C32)n1 (stereo not shown) [drawing 430],pest or weed control at 2000 g/ha,"Alopecurus myosuroides; post-emergence, postemergence",32%
same,pest or weed control at 4000 g/ha,"Alopecurus myosuroides; post-emergence, postemergence",40%
same,pest or weed control at 8000 g/ha,"Alopecurus myosuroides; post-emergence, postemergence",50%
same,pest or weed control at 2000 g/ha,"Alopecurus myosuroides; pre-emergence, preemergence",70%
same,pest or weed control at 4000 g/ha,"Alopecurus myosuroides; pre-emergence, preemergence",88%
same,pest or weed control at 8000 g/ha,"Alopecurus myosuroides; pre-emergence, preemergence",100%
same,percentage damage,Datura stramonium; 2.0 kg/ha,50 percentage damage
same,percentage damage,Datura stramonium; 4.0 kg/ha,60 percentage damage
same,percentage damage,Datura stramonium; 8.0 kg/ha,65 percentage damage
same,percentage damage,Digitaria sanguinalis; 2.0 kg/ha,60 percentage damage
same,percentage damage,Digitaria sanguinalis; 4.0 kg/ha,60 percentage damage
same,percentage damage,Digitaria sanguinalis; 8.0 kg/ha,80 percentage damage
same,percentage damage,Eleusine indica; 2.0 kg/ha,60 percentage damage
same,percentage damage,Eleusine indica; 4.0 kg/ha,60 percentage damage
same,percentage damage,Eleusine indica; 8.0 kg/ha,70 percentage damage

# Reference: patent US4257941A, “Polycyclic nitrogen-containing compounds” (BASF Aktiengesellschaft, priority 1976, dated 1981)
